Biological target: T1, Human GPR120 short form (Homo sapiens, UniProt Q5NUL3)
T1 construct: expressed in transfected cells
T1 sequence (Q5NUL3 1-361): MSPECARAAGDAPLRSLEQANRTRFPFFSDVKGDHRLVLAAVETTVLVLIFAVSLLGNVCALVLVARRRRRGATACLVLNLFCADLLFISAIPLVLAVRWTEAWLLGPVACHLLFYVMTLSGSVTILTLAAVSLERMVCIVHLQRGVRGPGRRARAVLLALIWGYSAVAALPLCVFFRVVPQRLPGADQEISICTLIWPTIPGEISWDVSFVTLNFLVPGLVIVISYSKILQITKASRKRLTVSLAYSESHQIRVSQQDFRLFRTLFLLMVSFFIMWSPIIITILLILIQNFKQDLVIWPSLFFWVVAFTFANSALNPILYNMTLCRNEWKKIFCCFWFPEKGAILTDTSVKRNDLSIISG
Assay: Human GPR120 in Calcium Flux Assay, Procedure Calcium A (2500 cells/well)
Format: cell-based
Outline: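 HEK293 cells stably expressing GPR120 short isoform, 2500 cells/well, serum-starved 1 h, loaded with Fluo-4 NW plus probenecid (30 min 37 °C, 15 min RT). Compounds prepared at 0.012–100 μM, 0.2% DMSO final. FLIPR calcium signal over 300 s as Fmax−Fmin; EC50 from variable-slope fit (Hill <2).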

Row | SMILES | EC50 [nM]
1 | Cc1oc2c(COc3ccc(CCC(=O)O)c(C)c3C)cc(F)cc2c1F [Compound 5, 3-{4-[(3,5-Difluoro-2-methyl-1-benzofuran-7-yl)methoxy]-2,3-dimethylphenyl}propanoic acid] | 1240
2 | Cc1cc2c(COc3ccc(CCC(=O)O)c(C)c3C)cc(Cl)cc2o1 [Compound 81, 3-{4-[(6-Chloro-2-methyl-1-benzofuran-4-yl)methoxy]-2,3-dimethylphenyl}propanoic acid] | 136
3 | Cc1cc2c(F)c(OC(F)(F)F)c(F)c(COc3ccc(CCC(=O)O)c(F)c3F)c2o1 [Compound 75, 3-(4-{[4,6-Difluoro-2-methyl-5-(trifluoromethoxy)-1-benzofuran-7-yl]methoxy}-2,3-difluorophenyl)propanoic acid] | 182
4 | CCCc1cc2cc(I)cc(COc3ccc(CCC(=O)O)c(C)c3C)c2o1 [Compound 47, 3-{4-[(5-Iodo-2-propyl-1-benzofuran-7-yl)methoxy]-2,3-dimethylphenyl}propanoic acid] | 22
5 | Cc1c(CCC(=O)O)ccc(OCc2cc(F)cc3cc(C4CCCC4)oc23)c1C [Compound 18, 3-{4-[(2-Cyclopentyl-5-fluoro-1-benzofuran-7-yl)methoxy]-2,3-dimethylphenyl}propanoic acid] | 653
6 | CCc1cc2cc(OC(F)(F)F)cc(COc3ccc(CCC(=O)O)c4c3CCC4)c2o1 [Compound 52, 3-(7-{[2-Ethyl-5-(trifluoromethoxy)-1-benzofuran-7-yl]methoxy}-2,3-dihydro-1H-inden-4-yl)propanoic acid] | 29
7 | CCc1cc2cc(Cl)c(OCCOC)c(COc3ccc(CCC(=O)O)c(C)c3C)c2o1 [Compound 63, 3-(4-{[5-Chloro-2-ethyl-6-(2-methoxyethoxy)-1-benzofuran-7-yl]methoxy}-2,3-dimethylphenyl)propanoic acid] | 67
8 | CCc1cc2cc(OC(F)(F)F)cc(COc3ccc(CCC(=O)O)c(C)c3C)c2o1 [Compound 12, 3-(4-{[2-Ethyl-5-(trifluoromethoxy)-1-benzofuran-7-yl]methoxy}-2,3-dimethylphenyl)propanoic acid] | 39
9 | CCc1cc2cc(Cl)cc(COc3ccc(CCC(=O)O)c4c3CCC4)c2o1 [Compound 54, 3-{7-[(5-Chloro-2-ethyl-1-benzofuran-7-yl)methoxy]-2,3-dihydro-1H-inden-4-yl}propanoic acid] | 36
10 | Cc1oc2cc(Cl)cc(COc3ccc(CCC(=O)O)c(C)c3C)c2c1C [Compound 80, 3-{4-[(6-Chloro-2,3-dimethyl-1-benzofuran-4-yl)methoxy]-2,3-dimethylphenyl}propanoic acid] | 151
11 | CCCc1cc2cc(Cl)cc(COc3ccc(CCC(=O)O)c(F)c3F)c2o1 [Compound 59, 3-{4-[(5-Chloro-2-propyl-1-benzofuran-7-yl)methoxy]-2,3-difluorophenyl}propanoic acid] | 93
12 | CCCc1cc2cc(Cl)cc(COc3ccc(CCC(=O)O)c(C)c3C#N)c2o1 [Compound 41, 3-{4-[(5-Chloro-2-propyl-1-benzofuran-7-yl)methoxy]-3-cyano-2-methylphenyl}propanoic acid] | 291
13 | Cc1c(CCC(=O)O)ccc(OCc2cc(F)cc3cc(C(F)F)oc23)c1C [Compound 32, 3-(4-{[2-(Difluoromethyl)-5-fluoro-1-benzofuran-7-yl]methoxy}-2,3-dimethylphenyl)propanoic acid] | 277
14 | Cc1c(CCC(=O)O)ccc(OCc2cc(F)cc3cc(C(C)C)oc23)c1C [Compound 22, 3-(4-{[5-Fluoro-2-(1-methylethyl)-1-benzofuran-7-yl]methoxy}-2,3-dimethylphenyl)propanoic acid] | 166
15 | Cc1cc2c(F)c(OC(F)(F)F)c(F)c(COc3ccc(CCC(=O)O)c(C)c3C)c2o1 [Compound 71, 3-(4-{[4,6-Difluoro-2-methyl-5-(trifluoromethoxy)-1-benzofuran-7-yl]methoxy}-2,3-dimethylphenyl)propanoic acid] | 64
16 | CCCc1cc(OCc2cc(OC(F)(F)F)cc3cc(CC)oc23)c(F)cc1CCC(=O)O [Compound 50, 3-(4-{[2-Ethyl-5-(trifluoromethoxy)-1-benzofuran-7-yl]methoxy}-5-fluoro-2-propylphenyl)propanoic acid] | 59
17 | CC#Cc1cc(COc2ccc(CCC(=O)O)c(C)c2C)c2oc(CCC)cc2c1 [Compound 58, 3-{2,3-Dimethyl-4-[(2-propyl-5-prop-1-yn-1-yl-1-benzofuran-7-yl)methoxy]phenyl}propanoic acid] | 87
18 | Cc1cc2cc(F)cc(COc3ccc(CCC(=O)O)c(C)c3C)c2o1 [Compound 2, 3-{4-[(5-Fluoro-2-methyl-1-benzofuran-7-yl)methoxy]-2,3-dimethylphenyl}propanoic acid] | 51
19 | CCOc1c(Cl)cc2cc(CC)oc2c1COc1ccc(CCC(=O)O)c(C)c1C [Compound 62, 3-{4-[(5-Chloro-6-ethoxy-2-ethyl-1-benzofuran-7-yl)methoxy]-2,3-dimethylphenyl}propanoic acid] | 67
20 | Cc1c(CCC(=O)O)ccc(OCc2cc(F)cc3cc(C#N)oc23)c1C [Compound 49, 3-{4-[(2-Cyano-5-fluoro-1-benzofuran-7-yl)methoxy]-2,3-dimethylphenyl}propanoic acid] | 237
21 | Cc1c(CCC(=O)O)ccc(OCc2cc(F)cc3cc(C(F)(F)F)oc23)c1C [Compound 4, 3-(4-{[5-Fluoro-2-(trifluoromethyl)-1-benzofuran-7-yl]methoxy}-2,3-dimethylphenyl)propanoic acid] | 279
22 | Cc1cc2cc(Cl)cc(COc3ccc(CCC(=O)O)c(C)c3C)c2o1 [Compound 78, 3-{4-[(5-Chloro-2-methyl-1-benzofuran-7-yl)methoxy]-2,3-dimethylphenyl}propanoic acid] | 20
23 | CCc1cc2cc(OC(F)F)cc(COc3ccc(CCC(=O)O)c(C)c3C)c2o1 [Compound 57, 3-(4-{[5-(Difluoromethoxy)-2-ethyl-1-benzofuran-7-yl]methoxy}-2,3-dimethylphenyl)propanoic acid] | 17
24 | Cc1cc2cc(OC(F)F)cc(COc3ccc(CCC(=O)O)c(C)c3C)c2o1 [Compound 76, 3-(4-{[5-(Difluoromethoxy)-2-methyl-1-benzofuran-7-yl]methoxy}-2,3-dimethylphenyl)propanoic acid] | 20
25 | CCOc1cc(COc2ccc(CCC(=O)O)c(C)c2C)c2oc(CC)cc2c1 [Compound 29, 3-{4-[(5-Ethoxy-2-ethyl-1-benzofuran-7-yl)methoxy]-2,3-dimethylphenyl}propanoic acid] | 107
26 | Cc1cc2cc3c(c(COc4ccc(CCC(=O)O)c(C)c4C)c2o1)OCCO3 [Compound 90, 3-{2,3-Dimethyl-4-[(7-methyl-2,3-dihydrofuro[2,3-g][1,4]benzodioxin-5-yl)methoxy]phenyl}propanoic acid] | 113
27 | Cc1c(CCC(=O)O)ccc(OCc2cc(OC(F)(F)F)cc3cc(C=CF)oc23)c1C (mixture of isomers) [Compound 97, 3-(4-{[2-(2-Fluoroethenyl)-5-(trifluoromethoxy)-1-benzofuran-7-yl]methoxy}-2,3-dimethylphenyl)propanoic acid] | 20

Source: US9562053B2, “Benzo-fused heterocyclic derivatives useful as agonists of GPR120” (Janssen Pharmaceutica NV, priority 2013, dated 2017)
